Test results reported in patent publication US20240300975A1, “DIMETHYL-SUBSTITUTED THIAZOLOLACTAM COMPOUND AND USE THEREOF” (D3 Bio (Wuxi) Co., Ltd., priority 2021, published 2024).
In brackets after ≈: the same amount, converted by molar mass. Like-named read-outs stand apart in the source and are kept apart here.

How the values were obtained:
[1] = Solubility study (HPLC-UV, 24 h shaking); format: physicochemical; settings: 25 °C, aqueous buffer, kinetic from dmso stock, 2% DMSO, max 200 μM
Method: The solubility of a compound was determined to evaluate the solubility property of the compound.
• 1) Buffer A (pH 2.0): 50 mM phosphate buffer, pH 2.0; Buffer B (pH 6.5): 50 mM phosphate buffer, pH 6.5; Buffer C (pH 7.4): 50 mM phosphate buffer, pH 7.4; • 2) Preparation of standard solution: • a) 50% acetonitrile solution and 50% buffer solution were mixed to obtain a diluent; • b) 10 mM (10 μL/compound) compound stock solution was added to the diluent (490 μL/compound) to obtain 200 μM detection standard solution; • c) The 200 μM UV detection standard solution was diluted with 10-fold and 200-fold volume of diluents to obtain 20 μM and 1 μM UV standard solutions, respectively; • d) 1 μM, 20 μM, and 200 μM UV standard solutions were used as standard solutions for solubility assay.
• a) The compound was dissolved in DMSO to prepare a 10 mM stock solution. […] The pH of the corresponding solubility solutions was 2.0, 6.5 and 7.4, respectively. The theoretical maximum concentration of the assay compound is 200 μM with 2% DMSO; • c) The plate was shaken in a shaker at room temperature (25±2° C.) at 600 rpm for 24 hours; • d) 200 μL of the solution was pipetted from the 96-well plate, filtered with suction by a vacuum suction filtration device, and transferred into a new 96-well plate as an assay sample; • e) The compound concentration was determined using HPLC-UV.
• f) Three UV standard solutions from low concentration to high concentration (1 μM, 20 μM, 200 μM) were injected into HPLC, and then the assay sample of the compound to be assayed was injected; • g) The UV chromatographic peaks were integrated, and the solubility of the sample was calculated.

human plasma albumin = assay: Plasma protein binding (PPB), human plasma; format: in vitro ADME; settings: ultracentrifugation, 37° C., 4 h
Method: (§1) The binding degree of the assay compound to human/mouse/rat/canine/monkey plasma albumin was studied.
(§2) • 1) Matrix preparation: on the day of the assay, plasma was thawed in cold water and centrifuged at 3220 rpm for 5 min to remove all clots. The pH of the resulting plasma was measured and adjusted to 7.4±0.1 using 1% phosphoric acid or 1N sodium hydroxide as needed. • 2) Dilution procedure for the assay compound: the assay compound was dissolved in dimethyl sulfoxide (DMSO) to prepare stock solutions with concentrations of 10 mM and 2 mM, respectively. A 40 μM working solution was prepared by diluting 2 μL of stock solution (2 mM) with 98 μL of DMSO. A 400 μM working solution of the control compound was prepared by diluting 10 μL of stock solution with 240 μL of DMSO. The working solution of the compound (5 μL) was mixed well with a blank matrix (995 μL) at a ratio of 1:200 to prepare a loading matrix.
(§3) • a) An equal volume of 30 μL of loading matrix (n=2) was transferred to a sample collection plate to prepare a time 0 (TO) sample for residue determination. The sample was immediately matched with the corresponding blank buffer to a final volume of 60 μL, and the volume ratio of plasma to buffer in each well was 1:1. […] The mixture was centrifuged at 4000 rpm for 20 min and 100 μL of supernatant from each sample was analyzed by LC-MS/MS.

rat plasma albumin = assay: Plasma protein binding (PPB), rat plasma; format: in vitro ADME; settings: ultracentrifugation, 37° C., 4 h
Method: as §1, §2, §3

`Cc1cccc(CN2C(=O)c3nc(-c4nc(Nc5ccnn5C)ncc4C)sc3C2(C)C)n1` [WX001] showed a solubility at 24 h ([1]; 50 mM phosphate buffer pH 2.0, 25±2° C., read-out: Solubility pH = 2.0) of over 200 µM, a solubility at 24 h ([1]; 50 mM phosphate buffer pH 6.5, 25±2° C., read-out: Solubility pH = 6.5) of 6.2 µM (≈ 2.86 µg/mL) and a solubility at 24 h ([1]; 50 mM phosphate buffer pH 7.4, 25±2° C., read-out: Solubility pH = 7.4) of 7.08 µM (≈ 3.26 µg/mL). For the same compound, the “Plasma protein binding rate (unbound %)” value (human plasma albumin) was 6.1% and the “Plasma protein binding rate (unbound %)” value (rat plasma albumin) was 3.8%.
